Results taken from patent US4198506A, “2-Carboxyalkyl-2,3-dihydro-6-mercapto-s-triazolo[4,3-b]-pyridazin-3-ones” (Bristol-Myers Company, priority 1979, dated 1980).
≈ marks a conversion by molar mass, not a printed value. Read-outs that look alike come from different tables or passages of the source.

What was measured:
Sal. enteritidis = test: In vitro antibacterial activity (Steers' agar dilution MIC); format: cell-based; settings: Salmonella enterica, table 2 (BB-S493), Sal. enteritidis A9531
E. coli = test: as above; format: cell-based; settings: Escherichia coli, read-out: MIC
Source text: (§1) In vitro Antibacterial Activity of BB-S493 Compared with
(§2) BB-S479 and Cefamandole (Determined by Steers' Agar Dilu-
(§3) tion Method on Mueller-Hinton Agar Plate)
(§4) In vitro antibacterial activity of BB-S 525 compared with
(§5) BB-S 479 and cefamandole (determined by Steers' agar dilution
(§6) method on Mueller-Hinton agar plate)

Shig. sonnei = test: as above; format: cell-based; settings: Shigella sonnei, table 2 (BB-S493); Shig. sonnei A9516
Source text: as §1, §2, §3, §4, §5, §6

Shig. flexneri = test: as above; format: cell-based; settings: Shigella flexneri; table 2 (BB-S493); Shig. flexneri A9684; read-out: MIC
Source text: as §1, §2, §3, §4, §5, §6

Sal. typhosa = test: as above; format: cell-based; settings: table 2 (BB-S493); Sal. typhosa A9498
Source text: as §1, §2, §3, §4, §5, §6

Kl. pneumoniae = test: as above; format: cell-based; settings: Klebsiella pneumoniae, table 2 (BB-S493)
Source text: as §1, §2, §3, §4, §5, §6

S. aureus = test: as above; format: cell-based; settings: Staphylococcus aureus, table 2 (BB-S493)
Source text: as §1, §2, §3, §4, §5, §6

Pr. morganii = test: as above; format: cell-based; settings: Morganella morganii, table 2 (BB-S493), read-out: MIC
Pr. mirabilis = test: as above; format: cell-based; settings: Proteus mirabilis, table 2 (BB-S493), read-out: MIC
Pr. rettgeri = test: as above; format: cell-based; settings: Providencia rettgeri, table 2 (BB-S493); Pr. rettgeri A15167
Ps. aeruginosa = test: as above; format: cell-based; settings: table 2 (BB-S493)
Shig. dysenteriae = test: as above; format: cell-based; settings: Shigella dysenteriae, table 2 (BB-S493); Shig dysenteriae
Pr. vulgaris = test: as above; format: cell-based; settings: Proteus vulgaris, table 2 (BB-S493), read-out: MIC
B. anthracis = test: microbe, parasite or virus in culture; format: cell-based; settings: Bacillus anthracis, table 2 (BB-S493); B. anthracis A9504
Enterob. cloacae = test: In vitro antibacterial activity (Steers' agar dilution MIC); format: cell-based; settings: table 2 (BB-S493); Enterob. cloacae A9656; read-out: MIC
Serr. marcescens = test: as above; format: cell-based; settings: Serratia marcescens; table 2 (BB-S493); Serr. marcescens A20019; read-out: MIC
E. coli Juhl = test: In vivo activity (Mice, sc); settings: Escherichia coli, several determinations listed, read-out: PD50
Source text: (§7) |In vivo Activity of BB-[…] and Related Compounds (Mice, sc) | (PD50 (mgm./kg.)

S. aureus Smith = test: In vivo activity (Mice, sc); settings: Staphylococcus aureus, several determinations listed, read-out: PD50
Source text: as §7

St. faecalis = test: In vitro antibacterial activity (Steers' agar dilution MIC); format: cell-based; settings: Enterococcus faecalis, table 2 (BB-S493); St. faecalis A9536; read-out: MIC

## NCC1=C(CC(=O)N[C@@H]2C(=O)N3C(C(=O)O)=C(CSc4ccc5nn(CC(=O)O)c(=O)n5n4)CS[C@H]23)CC=CC1 [BB-S493, 7-[(2-Aminomethyl-1,4-cyclohexadienyl)acetamido]3-(2-N-carboxymethyl-s-triazolo[4,5-b]pyridazin-3-on-6-ylthiomethyl)-3-cephem-4-carboxylic Acid]
Sal. enteritidis
  MIC: 0.1 µg/mL (≈ 0.17 µM)
E. coli; ATCC8739, table 2 (BB-S493), E. coli ATCC 8739
  MIC: 0.2 µg/mL (≈ 0.34 µM)
E. coli; table 2 (BB-S493), E. coli A9660
  MIC: 0.1 µg/mL (≈ 0.17 µM)
E. coli; table 2 (BB-S493), E. coli A15147
  MIC: 6.3 µg/mL (≈ 10.7 µM)
E. coli; table 2 (BB-S493), E. coli A15810
  MIC: 0.2 µg/mL (≈ 0.34 µM)
E. coli; table 2 (BB-S493), E. coli BX-1373
  MIC: 0.4 µg/mL (≈ 0.681 µM)
E. coli; table 2 (BB-S493), E. coli Juhl A15119
  MIC: 0.2 µg/mL (≈ 0.34 µM)
E. coli; table 2 (BB-S493), E. coli NIHJ
  MIC: 0.1 µg/mL (≈ 0.17 µM)
Shig. sonnei
  MIC: 0.05 µg/mL (≈ 0.0851 µM)
Shig. flexneri
  MIC: 25 µg/mL (≈ 42.5 µM)
Sal. typhosa
  MIC: 0.1 µg/mL (≈ 0.17 µM)
Kl. pneumoniae; Kl. pneumoniae A9678
  MIC: 0.4 µg/mL (≈ 0.681 µM)
Kl. pneumoniae; Kl. pneumoniae A9867
  MIC: 0.2 µg/mL (≈ 0.34 µM)
Kl. pneumoniae; Kl. pneumoniae A9977
  MIC: 0.2 µg/mL (≈ 0.34 µM)
Kl. pneumoniae; Kl. pneumoniae A15130
  MIC: 0.2 µg/mL (≈ 0.34 µM)
S. aureus; S. aureus A9497
  MIC: 0.2 µg/mL (≈ 0.34 µM)
S. aureus; S. aureus BX-1633 A9606
  MIC: 0.4 µg/mL (≈ 0.681 µM)
S. aureus; S. aureus Smith A9537
  MIC: 0.4 µg/mL (≈ 0.681 µM)
Pr. morganii; Pr. morganii A9553
  MIC: > 100 µg/mL
Pr. morganii; Pr. morganii A20031
  MIC: 0.4 µg/mL (≈ 0.681 µM)
Pr. mirabilis; Pr. mirabilis A9554
  MIC: 0.2 µg/mL (≈ 0.34 µM)
Pr. mirabilis; Pr. mirabilis A9900
  MIC: 0.2 µg/mL (≈ 0.34 µM)
Pr. rettgeri
  MIC: 0.1 µg/mL (≈ 0.17 µM)
Ps. aeruginosa; Pseudomonas aeruginosa, Ps. aeruginosa A9843, read-out: MIC
  MIC: > 100 µg/mL
Ps. aeruginosa; Ps. aerugionsa A9930
  MIC: > 100 µg/mL
Shig. dysenteriae
  MIC: 0.05 µg/mL (≈ 0.0851 µM)
Pr. vulgaris; Pr. vulgaris A9436
  MIC: 0.4 µg/mL (≈ 0.681 µM)
Pr. vulgaris; Pr. vulgaris A9699
  MIC: 6.3 µg/mL (≈ 10.7 µM)
B. anthracis
  MIC: 0.0125 µg/mL (≈ 0.0213 µM)
Enterob. cloacae
  MIC: 6.3 µg/mL (≈ 10.7 µM)
Serr. marcescens
  MIC: 100 µg/mL (≈ 170 µM)
E. coli Juhl
  ED50: 0.27 mg/kg
S. aureus Smith
  ED50: 0.29 mg/kg
St. faecalis
  MIC: 100 µg/mL (≈ 170 µM)
